Measurements from US9580430B2, “9H-pyrimido[4,5-B]indoles and related analogs as BET bromodomain inhibitors” (THE REGENTS OF THE UNIVERSITY OF MICHIGAN, priority 2014, dated 2017).
Read-outs that look alike come from different tables or passages of the source.

How the values were obtained:
recombinant BRD4 BD2 = biological target: T1, recombinant BRD4 BD2 (Homo sapiens, UniProt O60885); assay: Competitive fluorescence-polarization (FP) binding assay, BRD4 BD2; details: for Ki: read-out: Binding affinities (FP) BRD4BD2 Ki; as to IC50 (nM) BRD4 BD2: probe 1.5 nM
T1 construct: for recombinant BRD4 BD1 and BRD4 BD2 proteins
How it was run: (§1)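 Buffer: 100 mM potassium phosphate, pH 6.5, 0.01% Triton X-100; compounds added in buffer with 40% ethylene glycol to preformed complex of fluorescent probe with BRD4 BD1 (10 nM final) or BD2 (6 nM final). After 30 min at room temperature, polarization read. IC50 from nonlinear fits of competition curves, with Ki.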

MOLM-13 = assay: Cell growth inhibition, MOLM-13 leukemia cells (CellTiter-Glo); format: cell-based; details: Homo sapiens, MOLM-13, 96 h; 4 days; read-out: IC50 (nM) MOLM-13 Cell Line (CellTiter-Glo assay)
How it was run: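 Luminescent ATP-based viability (CellTiter-Glo, 10-20 min at room temperature) in compound-treated MOLM-13 cells; the half-maximal inhibitory concentration was calculated from the readout.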

recombinant BRD4 BD1 = biological target: T2, recombinant BRD4 BD1 (Homo sapiens, UniProt O60885); assay: Competitive fluorescence-polarization (FP) binding assay, BRD4 BD1; details: for Ki: read-out: Binding affinities (FP) BRD4BD1 Ki; as to IC50 (nM) BRD4 BD1: probe 1.5 nM
T2 construct: for recombinant BRD4 BD1 and BRD4 BD2 proteins
How it was run: as §1

MDA-MB-436 = assay: Cell growth inhibition, MDA-MB-436 breast cancer cells (WST-8); format: cell-based; details: Homo sapiens, 4 days
How it was run: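 IC50 was computed from WST-8-based cell counting in MDA-MB-436 cells, with absorbance read at 450 nm.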

LNCaP = assay: Cell growth inhibition, LNCaP prostate cancer cells (Cell-Titer GLO); format: cell-based; details: Homo sapiens, read-out: Cellular data LNCaP IC50
[1] = competitive FP assay, protein 6 nM, probe […], read-out: IC50 (nM) BRD4 BD2
[2] = competitive FP assay, protein 10 nM, probe […], read-out: IC50 (nM) BRD4 BD1
[3] = MDA-MB-436, 96 h, read-out: IC50 (nM) MDA-MB-436 Cell Line (WST assay)
[4] = FP competitive binding, BRD4 BD2, read-out: Binding affinities (FP) BRD4BD2 IC50
[5] = FP competitive binding, BRD4 BD2
[6] = FP competitive binding, BRD4 BD1, read-out: Binding affinities (FP) BRD4BD1 IC50
[7] = FP competitive binding, BRD4 BD1
[8] = 96 h, MDA-MB-436 cells, read-out: Cellular data MDA-MB-436 IC50

| IC50 (recombinant BRD4 BD2; [1]) | IC50 (MOLM-13) | IC50 (recombinant BRD4 BD1; [2]) | IC50 (MDA-MB-436; [3]) | IC50 (recombinant BRD4 BD2; [4]) | Ki (recombinant BRD4 BD2; [5]) | IC50 (recombinant BRD4 BD1; [6]) | Ki (recombinant BRD4 BD1; [7]) | IC50 (LNCaP) | IC50 (MDA-MB-436; [8]) | Compound |
| --- | --- | --- | --- | --- | --- | --- | --- | --- | --- | --- |
| 14 nM | 21 nM | 12 nM | 67 nM |  |  |  |  |  |  | CCn1nc(C2CC2)c(F)c1Nc1nc(C)nc2[nH]c3cc(-c4c(C)noc4C)c(OC)cc3c12 [Cpd. No. 250, N-(3-cyclopropyl-1-ethyl-4-fluoro-1H-pyrazol-5-yl)-7-(3,5-dimethylisoxazol-4-yl)-6-methoxy-2-methyl-9H-pyrimido[4,5-b]indol-4-amine] |
| 5.5 nM | 11 nM | 9 nM | 23 nM |  |  |  |  |  |  | COc1cc2c(cc1-c1c(C)noc1C)[nH]c1nc(C)nc(Nc3cc(C4(C)CC4)nn3C)c12 [Cpd. No. 251, 7-(3,5-dimethylisoxazol-4-yl)-6-methoxy-2-methyl-N-(1-methyl-3-(1-methylcyclopropyl)-1H-pyrazol-5-yl)-9H-pyrimido[4,5-b]indol-4-amine] |
| 8.5 nM | 12 nM | 10.5 nM | 26 nM |  |  |  |  |  |  | COc1cc2c(cc1-c1c(C)noc1C)[nH]c1ccnc(Nc3cc(C4CC4)nn3C)c12 [Cpd. No. 255, N-(3-cyclopropyl-1-methyl-1H-pyrazol-5-yl)-7-(3,5-dimethylisoxazol-4-yl)-8-methoxy-5H-pyrido[4,3-b]indol-1-amine] |
|  |  |  |  | 3.6 nM | 5.7 nM | 6.1 nM | 2 nM | 116 nM | 351 nM | COc1cc2c(cc1-c1c(C)noc1C)[nH]c1nc(C)nc(Nc3cc(C4CC4)nn3C[C@H](O)CO)c12 [Cpd. No. 281] |
|  |  |  |  | 0.5 nM | 1 nM | 6.1 nM | 1.3 nM | 22 nM | 33 nM | COc1cc2c(cc1-c1c(C)noc1C)[nH]c1nc(C)nc(Nc3cc(C4CC4)nn3CC3COCCO3)c12 (centres unmarked) [Cpd. No. 282, N-(1-((1,4-dioxan-2-yl)methyl)-3-cyclopropyl-1H-pyrazol-5-yl)-7-(3,5-dimethylisoxazol-4-yl)-6-methoxy-2-methyl-9H-pyrimido[4,5-b]indol-4-amine] |
|  |  |  |  | 5 nM | 0.9 nM | 4.5 nM | 0.6 nM | 12 nM | 19 nM | COc1cc2c(cc1-c1c(C)noc1C)[nH]c1nc(C)nc(Nc3cc(C4CC4)nn3C3CCOCC3)c12 [Cpd. No. 283, N-(3-cyclopropyl-1-(tetrahydro-2H-pyran-4-yl)-1H-pyrazol-5-yl)-7-(3,5-dimethylisoxazol-4-yl)-6-methoxy-2-methyl-9H-pyrimido[4,5-b]indol-4-amine] |
|  |  |  |  | 10.6 nM | 2.6 nM | 10 nM | 3 nM | 105 nM | 268 nM | COc1cc2c(cc1-c1c(C)noc1C)[nH]c1nc(C)nc(Nc3cc(C4CC4)nn3CCN3CCOCC3)c12 [Cpd. No. 284, N-(3-cyclopropyl-1-(2-morpholinoethyl)-1H-pyrazol-5-yl)-7-(3,5-dimethylisoxazol-4-yl)-6-methoxy-2-methyl-9H-pyrimido[4,5-b]indol-4-amine] |
|  |  |  |  | 1.4 nM | < 1 nM | 3.1 nM | < 1 nM | 81 nM | 58 nM | COCCc1nc(Nc2cc(C3CC3)nn2C)c2c(n1)[nH]c1cc(-c3c(C)noc3C)c(OC)cc12 [Cpd. No. 287, N-(3-cyclopropyl-1-methyl-1H-pyrazol-5-yl)-7-(3,5-dimethylisoxazol-4-yl)-6-methoxy-2-(2-methoxyethyl)-9H-pyrimido[4,5-b]indol-4-amine] |
|  |  |  |  | 1.6 nM | < 1 nM | 4.9 nM | < 1 nM | 37 nM | 13 nM | COCCOCc1nc(Nc2cc(C3CC3)nn2C)c2c(n1)[nH]c1cc(-c3c(C)noc3C)c(OC)cc12 [Cpd. No. 288, N-(3-cyclopropyl-1-methyl-1H-pyrazol-5-yl)-7-(3,5-dimethylisoxazol-4-yl)-6-methoxy-2-((2-methoxyethoxy)methyl)-9H-pyrimido[4,5-b]indol-4-amine] |
|  |  |  |  | 2.2 nM | < 1 nM | 2.4 nM | < 1 nM | 130 nM | 57 nM | COc1cc2c(cc1-c1c(C)noc1C)[nH]c1nc(CS(C)(=O)=O)nc(Nc3cc(C4CC4)nn3C)c12 [Cpd. No. 289, N-(3-cyclopropyl-1-methyl-1H-pyrazol-5-yl)-7-(3,5-dimethylisoxazol-4-yl)-6-methoxy-2-((methylsulfonyl)methyl)-9H-pyrimido[4,5-b]indol-4-amine] |
|  |  |  |  | 4.5 nM | < 1 nM | 4.8 nM | < 1 nM | 12 nM | 19 nM | CCn1nc(C2CC2)cc1Nc1nc(N)nc2[nH]c3cc(-c4c(C)noc4C)c(OC)cc3c12 [Cpd. No. 290, N4-(3-cyclopropyl-1-ethyl-1H-pyrazol-5-yl)-7-(3,5-dimethylisoxazol-4-yl)-6-methoxy-9H-pyrimido[4,5-b]indole-2,4-diamine] |
|  |  |  |  | 4.9 nM | 1 nM | 5.2 nM | 1.5 nM | 20 nM | 37 nM | COc1cc2c(cc1-c1c(C)noc1C)[nH]c1nc(N)nc(Nc3cc(C4CC4)nn3C3CC3)c12 [Cpd. No. 291, N4-(1,3-dicyclopropyl-1H-pyrazol-5-yl)-7-(3,5-dimethylisoxazol-4-yl)-6-methoxy-9H-pyrimido[4,5-b]indole-2,4-diamine] |
|  |  |  |  | 2.3 nM | < 1 nM | 2 nM | < 1 nM | 7 nM | 12 nM | COc1cc2c(cc1-c1c(C)noc1C)[nH]c1nc(N)nc(Nc3c4c(nn3C(C)C)CCC4)c12 [Cpd. No. 292, 7-(3,5-dimethylisoxazol-4-yl)-N4-(2-isopropyl-2,4,5,6-tetrahydrocyclopenta[c]pyrazol-3-yl)-6-methoxy-9H-pyrimido[4,5-b]indole-2,4-diamine] |
|  |  |  |  | 850 nM | 342 nM | > 5000 nM |  | 1160 nM | 1190 nM | COc1c(-c2c(C)noc2C)cc2[nH]c3nc(C)nc(Nc4cc(C5CC5)nn4C)c3c2c1F [Cpd. No. 305] |
|  |  |  |  | 43 nM | 10 nM | 129 nM | 30 nM | 534 nM | 67 nM | COc1c(-c2c(C)noc2C)cc2[nH]c3nc(C)nc(N(C)c4cc(C5CC5)nn4C)c3c2c1F [Cpd. No. 306, N-(3-cyclopropyl-1-methyl-1H-pyrazol-5-yl)-7-(3,5-dimethylisoxazol-4-yl)-5-fluoro-6-methoxy-N,2-dimethyl-9H-pyrimido[4,5-b]indol-4-amine] |
|  |  |  |  | 18 nM | 4.3 nM | 16 nM | 3.8 nM | 59 nM | 130 nM | COc1cc2c([nH]c3nc(C)nc(Nc4cc(C5CC5)nn4C)c32)c(F)c1-c1c(C)noc1C [Cpd. No. 307, N-(3-cyclopropyl-1-methyl-1H-pyrazol-5-yl)-7-(3,5-dimethylisoxazol-4-yl)-8-fluoro-6-methoxy-2-methyl-9H-pyrimido[4,5-b]indol-4-amine] |
|  |  |  |  | 25 nM | 5.3 nM | 23 nM | 5 nM | 106 nM | 181 nM | COc1cc2c([nH]c3nc(C)nc(N(C)c4cc(C5CC5)nn4C)c32)c(F)c1-c1c(C)noc1C [Cpd. No. 308, N-(3-cyclopropyl-1-methyl-1H-pyrazol-5-yl)-7-(3,5-dimethylisoxazol-4-yl)-8-fluoro-6-methoxy-N,2-dimethyl-9H-pyrimido[4,5-b]indol-4-amine] |
| 63.5 nM | 97.4 nM | 16 nM | 271 nM |  |  |  |  |  |  | COc1cc2c(cc1-c1c(C)noc1C)[nH]c1nc(C)nc(Nc3nn(C)cc3C(C)C)c12 [compound 78, 7-(3,5-dimethylisoxazol-4-yl)-N-(4-isopropyl-1-methyl-1H-pyrazol-3-yl)-6-methoxy-2-methyl-9H-pyrimido[4,5-b] indol-4-amine] |
| 786 nM | 266 nM | 978 nM | 811 nM |  |  |  |  |  |  | COc1cc2c(cc1-c1c(C)noc1C)[nH]c1nc(C)nc(Nc3nnc4ccccn34)c12 [compound 101, N-([1,2,4]triazolo[4,3-a]pyridin-3-yl)-7-(3,5-dimethylisoxazol-4-yl)-6-methoxy-2-methyl-9H-pyrimido[4,5-b]indol-4-amine] |
| 35.1 nM | 97.4 nM | 21.9 nM | 154 nM |  |  |  |  |  |  | COc1cc2c(cc1-c1c(C)noc1C)[nH]c1nc(C)nc(Nc3cn(C)nc3C(C)(C)O)c12 [compound 269, 2-(4-(7-(3,5-dimethylisoxazol-4-yl)-6-methoxy-2-methyl-9H-pyrimido[4,5-b]indol-4-ylamino)-1-methyl-1H-pyrazol-3-yl)propan-2-ol] |
